Test results reported in US20220110953A1, “METHODS AND COMPOSITIONS FOR TREATING HUMAN PAPILLOMAVIRUS (HPV)-INDUCED CANCERS” (The Board of Regents of the University of Oklahoma, priority 2020, published 2022).

What was measured:
HPV 18 E6 = test: Western blot for phosphorylated E6 in HeLa cells treated with IKKβ inhibitor; format: cell-based, human
Procedure: HPV-18-positive HeLa cells were seeded on 6 cm dishes and allowed to attach overnight. Fresh medium was then added, containing either 0, 100 nM or 500 nM […] inhibitor (in DMSO). After 5 hours the cells were harvested in 2×SDS-PAGE gel loading buffer, run on SDS-PAGE, and analyzed by Western Blot. The membrane was probed with antibody specific for phosphorylated E6, as described previously (Boon and Banks 2012, DOI: 10.1128/JVI.02074-12). Following incubation with primary antibody, the appropriate horseradish peroxidase (HRP)-conjugated secondary antibodies (Dako) were used, followed by enhanced chemiluminescence (ECL) detection according to the manufacturer's instructions.
To assess whether phosphorylation-mediated regulation of E6 plays a role in suppression of Magi degradation, we treated cells expressing HPV 18 E6 with the IKKβ inhibitor […] (at 100 and 500 nM) and compared with untreated cells for E6 phosphorylation. Western blot analysis was performed using an antibody to detect phosphorylated E6.

HeLa (HPV 18+) cells = test: Effect of IMD 0354 on growth of HeLa cells (cell count after 48h); format: cell-based, human
Procedure: (§1) To examine the effect of IMD 0354 on the growth of HaCat (HPV^−), HeLa (HPV 18^+), CasKi and SiHa (both HPV 16^+), the cells were plated out and allowed to adhere overnight. Next day their culture medium was replaced and different concentrations of IMD 0354 (final concentrations 250, 500, 750, 1000, 1250 nM, using DMSO to equalize input volumes and as negative control) were added to the plates. Cells were counted 48h later.
(§2) IKKβ is a serine/threonine kinase that is highly conserved between flies and humans. It regulates the innate immune pathway by activating NF-κB, which in turn activates the expression of antimicrobial peptides to fight against pathogens. To determine whether IKKβ also has a functional link to E6+UBE3A in human cells, we assessed the effect of the commercial IKKβ inhibitor IMD 0354 on the growth of HaCat (HPV^−), HeLa (HPV 18^+), CasKi (HPV 16^+), and SiHa (HPV 16^+) cells. Different concentrations of the inhibitor were tested ranging from 250, 500, 750, 1000, to 1250 nM.

SiHa (HPV 16+) cells = test: Effect of IMD 0354 on growth of SiHa cells (cell count after 48h); format: cell-based, human; settings: 250-1250 nM
Procedure: as §1, §2

HaCat (HPV−) cells = test: Effect of IMD 0354 on growth of HaCat cells (cell count after 48h); format: cell-based, human; settings: 250-1250 nM
Procedure: as §1, §2

[1] = system: SiHa cervical cancer xenografts (HPV 16+); test: SiHa tumor xenograft model; format: in vivo, mice; settings: 10 mg/kg/day i.p., vs placebo
Procedure: (§3) The animal study was conducted in accordance with a standard animal protocol approved by the University of Oklahoma Health Sciences Center Institutional Animal Care and Use Committee (IACUC Protocol #19-009-CHI). […] Auranofin (10 mg/kg/day) or placebo (2% DMSO, 10% ethanol and 5% polyethylene glycol 400) were given daily for 16 days, through intraperitoneal injection. Mice were weighed once per week and animal health was monitored daily. At the end of the study, all mice were euthanized by CO2 inhalation followed by cardiac puncture and total blood collection. Tumors were collected at necropsy and a portion of each tumor from each animal was fixed in paraformaldehyde and embedded in paraffin, while another portion was snap-frozen in liquid nitrogen.
(§4) The tumor volume and body weight data were determined to be not normally distributed, and the final tumor weight data was determined to be normally distributed using the Shapiro-Wilk test. Tumor volume and body weight were compared between treatment groups using the Wilcoxon matched-pairs signed rank test. A two-way ANOVA with multiple comparisons was used to evaluate the interaction between time and treatment. An unpaired t-test was used to compare the final tumor weights between the two treatment groups. The p values <0.05 were considered statistically significant. Statistical analysis was performed using Prism 8.0 (GraphPad).

[2] = system: HPV 16+ and HPV 18+ human cervical cancer cell lines; test: Auranofin cell growth in human cervical cancer cell lines; format: cell-based; settings: FIG. 6
[3] = Body weight and gross toxicity in the SiHa xenograft study; format: in vivo, mice; settings: 10 mg/kg/day i.p., 16 days
Procedure: as §3, §4

O=C(Nc1cc(C(F)(F)F)cc(C(F)(F)F)c1)c1cc(Cl)ccc1O [IMD 0354]
E6 phosphorylation (Western blot) (HPV 18 E6; HeLa cell extracts, 100 nM, 5 hours): lack of E6 phosphorylation
E6 phosphorylation (Western blot) (HPV 18 E6; HeLa cell extracts, 500 nM, 5 hours): results in phosphorylation of E6
E6 phosphorylation (Western blot) (HPV 18 E6; cells expressing HPV 18 E6, at 100 and 500 nM, compared with untreated cells): extensive phosphorylation of E6
number of surviving cells relative to the initial number of cells (HeLa (HPV 18+) cells; 250 nM): 40%
number of surviving cells relative to the initial number of cells (HeLa (HPV 18+) cells; 1250 nM): 10%
effect on cell growth (HeLa (HPV 18+) cells; 250-1250 nM): most strongly affected
effect on cell growth (SiHa (HPV 16+) cells): significant
effect on cell growth (HaCat (HPV−) cells): minor effect

CC(=O)OC[C@H]1O[C@@H]([S-])[C@H](OC(C)=O)[C@@H](OC(C)=O)[C@@H]1OC(C)=O.CCP(CC)CC.[Au+] [Auranofin]
tumor growth (tumor volume over time) ([1]; 16 days, Wilcoxon p=0.0011): significant reduction in tumor growth
tumor volume after 16 days of treatment ([1]; two-way ANOVA multiple comparisons p=0.0016): significant reduction in tumor volume
activity against cervical cancer cell lines (cell growth) [2]: active
gross toxicity to the animals [3]: did not cause gross toxicity
body weights ([3]; vs placebo, any time point, p>0.05): no significant differences
